Experimental data from patent US12385061B2, “Compositions and methods for chimeric ligand receptor (CLR)-mediated conditional gene expression” (Poseida Therapeutics, Inc., priority 2017, dated 2025).
Read-outs that look alike come from different tables or passages of the source.

Assays:
[1] = cited from earlier work
cells [2] = settings: cited from earlier work
cells [3] = test: Amount of AP1903 needed in vitro for effective signaling of cells; format: cell-based; settings: converted with 1600 Da MW
Method: The fixed dose of AP1903 for injection used, for example, may be 0.4 mg/kg intravenously infused over 2 hours. The amount of AP1903 needed in vitro for effective signaling of cells is 10-100 nM (1600 Da MW). This equates to 16-160 μg/L or {tilde over ( )}0.016-1.6 μg/kg (1.6-160 μg/kg). Doses up to 1 mg/kg were well-tolerated in the Phase I study of AP1903 described above. Therefore, 0.4 mg/kg may be a safe and effective dose of AP1903 for this Phase I study in combination with the therapeutic cells.

CC[C@H](C(=O)N1CCCC[C@H]1C(=O)O[C@H](CCc1ccc(OC)c(OC)c1)c1cccc(OCC(=O)NCCNC(=O)COc2cccc([C@@H](CCc3ccc(OC)c(OC)c3)OC(=O)[C@@H]3CCCCN3C(=O)[C@@H](CC)c3cc(OC)c(OC)c(OC)c3)c2)c1)c1cc(OC)c(OC)c(OC)c1 (relative stereo) [AP1903, 2-Piperidinecarboxylic acid, 1-[(2S)-1-oxo-2-(3,4,5-trimethoxyphenyl)butyl]-, 1,2-ethanediylbis[imino(2-oxo-2,1-ethanediyl)oxy-3,1-phenylene[(l R)-3-(3,4-dimethoxyphenyl)propylidene]]ester, [2S-[1(R*),2R*[S*[S*[1(R*),2R*]]]]]-(9Cl)]
pharmacokinetic profile ([1]; 0.01-1.0 mg/kg IV over 2 hours): favorable pharmacokinetic profile
plasma levels in relation to dose ([1]; 0.01-1.0 mg/kg IV over 2 hours): directly proportional to dose
plasma level as % of maximal concentration ([1]; 0.5 hours post-dose): approximately 18%
plasma level as % of maximal concentration ([1]; 2 hours post-dose): ~7%
plasma level as % of maximal concentration ([1]; 10 hours post-dose): ~1%
doses well-tolerated ([1]; Phase I study): up to 1 mg/kg
safety and tolerability ([1]; at all dose levels (0.01-1.0 mg/kg)): safe and well tolerated
mean Cmax ([1]; over the 0.01-1.0 mg/kg dose range, single doses infused IV over 2 hours, 24 healthy volunteers): 10 to 1275 ng/mL
amount needed in vitro for effective signaling of cells (cells [2]): 10 to 100 nM
amount needed in vitro for effective signaling of cells, converted (cells [3]): 16 to 160 µg/L
